Assay results as given in US20150292023A1, “Materials and Methods Related to NSAID Chemoprevention in Colorectal Cancer” (priority 2011, published 2015).
Like-named read-outs stand apart in the source and are kept apart here.

Assays:
LS/HNPCC patients = conditions: cited from earlier work; for decrease in the rate of tumor formation / tumor incidence: long-term aspirin exposure (benefit after 5 yrs) vs placebo-treated cohort
[1] = tested on: Msh2^flox/floxVpC^+/+ (LS/HNPCC) mice; experiment: Kaplan-Meier survival of LS/HNPCC mice treated with NSAIDs in diet; assay type: in vivo, mouse
Method: (§1) Cohorts of equivalent gender Msh2^flox/floxVpC^+/+ mice were treated with NSAIDs including ASA that were mixed with powdered diet and administered ad libitum. VpC^+/+ (Msh2^++) mice were similarly examined to control for potentially confounding effects of continuous Cre expression in the intestine. Kaplan-Meier survival analyses were generated for each NSAID treatment (FIG. 2).
A mouse model where exon 12 of Msh2 is flanked by LoxP recombination sites (Msh2^flox/flox) was generated. […] When considering the utility of this mouse model it is important to note that while modern day LS/HNPCC largely occurs in the colon, it was originally described as a gastric cancer.
The endpoint for the chemopreventive analysis of NSAIDs on mouse tumorigenesis is survival. Assessment of tumor kinetics, treatment regimes and pathological changes during tumor development constitute a correlative quantitative database.

[2] = tested on: intestinal tumors of LS/HNPCC mice; experiment: Tumor number and pathology following NSAID treatment; conditions: for numbers of tumors when sacrificed: untreated 1.90±1.02, statistically equivalent
[3] = tested on: microsatellite instability (MSI) in intestinal tissues of LS/HNPCC mice; experiment: MSI analysis of tissues by small pool PCR (comparative MSI, Bethesda Criteria); assay type: in vivo, mouse; conditions: for conversion of MSI to MSS (in words): intestinal compartment of treated mice; for comparative MSI-H proportion: intestinal tumor vs matched adjacent normal tissue, untreated 33%
Method: A MSI analysis on tissues from the ASA and NO-ASA treatment groups by small pool PCR (1-10 genomic equivalents) was performed to determine the distribution of novel alleles between constitutional DNA (Ear, E) as well as normal (N) and tumor (T) intestinal tissues. When multiple samples of each tissue were analyzed, the resulting profiles comprised a representational distribution of the intrinsic allelic diversity. Ear tissues from these mice were consistently MSS, with the major allele always flanked by a relatively unvarying pattern of alleles that arise from PCR amplification-artifacts. Normal and intestinal tissues from ASA and NO-ASA treated mice show variation in major allele sizes and distributions.
A comparative assessment of MSI status was made between intestinal tumors and their matched adjacent normal tissues by determining the absolute changes in microsatellite alterations between them. Comparative MSI provides a quantitative measure of the relative differences in instability between adjacent developmentally related normal and tumor tissues. The Bethesda Criteria for diagnostic microsatellite instability was used: MSS, no changes in microsatellite marker status; high microsatellite instability (MSI-H; ≧2 of 5 markers different).

[4] = tested on: MMR-deficient human colon tumor cells; experiment: MSI suppression in MMR-defective cells; assay type: cell-based; conditions: for MSI suppression (in words): long-term exposure of MMR-defective cells
Excerpt: Inhibition of cyclooxygenase-1 (COX1) or COX2 activity that is involved in the production of inflammatory prostaglandins was, in the past, generally considered a mechanism for cancer chemoprevention by NSAIDs.

SMC1a mRNA = conditions: intestinal tissue
Method: (§2) Groups of 12 mice were continuously treated (6 VpC^+/+ wild type and 6 Msh2^flox/floxVpC^+/+ LS/HNPCC mice) with each of the eight NSAIDs and the intestines were harvested after two months exposure. A 0.5 cm section of intestine 2.5 cm proximal of the cecum was harvested from each individually treated mouse. High quality mRNA and miRNA was prepared for expression array analysis. To reduce the possibility of day-to-day variation the hybridization of all samples was performed simultaneously as well as sequential expression analysis. Transcriptome expression data from both the mRNA and miRNA chips was analyzed.
(§3) Identifying functional and regulatory connectivity among the differentially regulated miRs and mRNAs was analyzed to begin to determine biological pathways and networks responsible for NSAID-mediated tumor chemoprevention,. A combination of tools were used to deconvolute network interactions, including the ToppGene, ToppCluster, and ToppMir tools.

miR-9 = conditions: intestinal tissue
Method: as §2, §3

miR-135a = conditions: intestinal tissue
Method: as §2, §3

VpC^+/+ (wild type) mice = tested on: VpC^+/+ (wild type) mice
Method: as §1

**Q.** Which results are given for `CC(=O)Oc1ccccc1C(=O)O` [ASA, Acetylsalicylic acid]?
**A.** Hazard Ratio (HR) (LS/HNPCC patients; 600 mg aspirin daily vs placebo, tumors by yearly colonoscopy, p=0.02): 0.61(0.1 9, 0.86); decrease in the rate of tumor formation / tumor incidence (LS/HNPCC patients): ≥ 2 fold; decrease in the rate of tumor formation / tumor incidence (LS/HNPCC patients; listed as aspirin): at least 2 fold; mean survival ([1]; 400 mg/kg ASA in diet, untreated median 333 days, p<0.001): 393 days; increase in lifespan ([1]; 400 mg/kg ASA vs untreated): 18%; effect on survival (in words) ([1]; LS/HNPCC mice vs untreated): suppressed tumorigenesis and increased survival; numbers of tumors when sacrificed [2]: 1.68±0.72; conversion of MSI to MSS (in words) [3]: at least partially converted MSI to MSS; comparative MSI-H proportion [3]: 22%; MSI suppression (in words) [4]: suppressed MSI

**Q.** What does the source list for `COc1ccc2cc([C@H](C)C(=O)O)ccc2c1` [Naproxen, naproxen]?
**A.** mean survival ([1]; 166 mg/kg naproxen in diet): 545 days; mean survival ([1]; 331 mg/kg naproxen in diet): 569 days; effect on survival (in words) ([1]; LS/HNPCC mice vs untreated): nearly double the life span of untreated animals; increase in life span (FIG. 2 grouping) ([1]; representative survival data, vs untreated LS/HNPCC mice): ~100%; numbers of tumors when sacrificed [2]: 1.58±0.67; SMC1a mRNA expression (in words) (SMC1a mRNA): enhanced; miR-9 expression (in words) (miR-9): down-regulated; miR-135a expression (in words) (miR-135a): down-regulated

**Q.** Which “effect on survival (in words)” value ([1]; LS/HNPCC mice vs untreated) does the source give for `CC1=C(CC(=O)O)c2cc(F)ccc2/C1=C\c1ccc(S(C)(=O)=O)cc1` [Sulindac Sulfone, sulindac sulfone] here?
**A.** No Effect

**Q.** Which “effect on survival (in words)” value ([1]; LS/HNPCC mice vs untreated) does the source give for `CC1=C(CC(=O)O)c2cc(F)ccc2/C1=C\c1ccc([S+](C)[O-])cc1` (centres unmarked) [Sulindac, sulindac] here?
**A.** increased survival similar to ASA

**Q.** What about the “number of cecal cancers (in words)” value [2] of the same molecule?
**A.** increases the number of cecal cancers

**Q.** And the “MSI suppression (in words)” value [4]?
**A.** suppressed MSI

**Q.** And the “tumor induction in wild type controls (in words)” value (VpC^+/+ (wild type) mice; mouse, in vivo)?
**A.** induces tumors in the wild type controls

**Q.** And the “survival of wild type mice (in words)” value (VpC^+/+ (wild type) mice; wild type controls, FIG. 2B)?
**A.** significant reduce the survival of the wild type mice

**Q.** With NO-sulindac sulphone as the molecule, how does the “effect on survival (in words)” value ([1]; LS/HNPCC mice vs untreated) read?
**A.** No Effect

**Q.** Which mean survival ([1]; 72 mg/kg NO-ASA in diet) does the source give for “nitric oxide-donating acetylsalicylic acid [NO-ASA]” here?
**A.** 403 days

**Q.** What about the “effect on survival (in words)” value ([1]; LS/HNPCC mice vs untreated) of the same molecule?
**A.** suppressed tumorigenesis and increased survival

**Q.** And the “numbers of tumors when sacrificed” value [2]?
**A.** 1.78±1.25

**Q.** And the “conversion of MSI to MSS (in words)” value [3]?
**A.** at least partially converted MSI to MSS

**Q.** What about the “comparative MSI-H proportion” value [3] of the same molecule?
**A.** 20%

**Q.** And the “dose suppressing MSI, fold lower than ASA” value ([4]; relative to ASA)?
**A.** 300-3000 fold

**Q.** For “nitric oxide-donating sulindac [NO-Sulindac]”, which “effect on survival (in words)” value ([1]; mouse, in vivo) is on record?
**A.** increased survival similar to ASA
